Reference: patent US5766914A, “Method of producing and purifying enzymes” (Michigan State University, priority 1995, dated 1998)

Experiments:
[1] = target: native β-galactosidase (soluble; lacZ of Escherichia coli) (Escherichia coli, UniProt P00722); test: β-galactosidase assay, KM for ONPG, native enzyme; assay type: biochemical; details: 0.1M sodium phosphate pH 7.5, room temperature, Michaelis-Menten curve through normalized data, FIG. 3
Procedure: (§1) β-galactosidase assay. The assay is based on that of Sambrook, et al. (J. Sambrook, et al., "Molecular Cloning (A laboratory manual)", 2nd Ed. Cold Spring Harbor Laboratory Press, Cold Spring Harbor, New York, 1989) with minor modifications. The assay mixture contains 0.1M sodium phosphate, pH 7.5, containing 3 mM o-nitrophenyl β-D-galactopyranoside […] (ONPG), 40.5 mM 2-mercaptoethanol and 90 μM MgCl2 in a total volume of 600 μL. Reactions were initiated by addition of enzyme, and carried out at room temperature unless otherwise noted. Activity was determined from the slopes of initial rates monitored at 420 nm. O-nitrophenol, the product of β-galactosidase-catalyzed hydrolysis of ONPG, has a molar extinction coefficient at 420 nm under assay conditions of 3.1×10^3 M^-1 cm^-1 (R. C. Weast, "Handbook of Chemistry and Physics", 60th ed. CRC Press, Boca Raton, Fla., 1979). β-galactosidase activity is reported in units of μmol ONPG hydrolyzed/min.
Catalytic properties of β-galactosidase in the spore coat. FIG. 3 diagrams KM values for native β-galactosidase (.circle-solid.) and the CotC-β-galactosidase fusion in the spore coat of spores from the cotC-lacZ fusion strain (.box-solid.). Data sets were normalized to the same Vmax value, set equal to 100. […]

[2] = tested on: CotC-β-galactosidase fusion (47 codons of B. subtilis cotC, SEQ ID NO:4, fused to E. coli lacZ) in the spore coat of spores from the cotC-lacZ fusion strain of …; test: β-galactosidase assay, KM for ONPG, spore-immobilized fusion; assay type: biochemical, Escherichia coli / Bacillus subtilis; details: 0.1M sodium phosphate pH 7.5, room temperature, Michaelis-Menten curve through normalized data, FIG. 3
Procedure: as §1
cot-lacZ fusions. Strains bearing the cotC-lacZ and cotD-lacZ fusions were generously provided by L. Kroos. […]
The cotC-lacZ fusion includes 355 bp upstream of the open reading frame of cotC and 47 codons of the open reading frame fused in frame to lacZ from plasmid pSGMU31. The cotD-lacZ fusion includes 237 upstream bp and 58 codons of the open reading frame of cotD. […]

Chain of native β-galactosidase (soluble; lacZ of Escherichia coli) (P00722 2-1024 limits assumed): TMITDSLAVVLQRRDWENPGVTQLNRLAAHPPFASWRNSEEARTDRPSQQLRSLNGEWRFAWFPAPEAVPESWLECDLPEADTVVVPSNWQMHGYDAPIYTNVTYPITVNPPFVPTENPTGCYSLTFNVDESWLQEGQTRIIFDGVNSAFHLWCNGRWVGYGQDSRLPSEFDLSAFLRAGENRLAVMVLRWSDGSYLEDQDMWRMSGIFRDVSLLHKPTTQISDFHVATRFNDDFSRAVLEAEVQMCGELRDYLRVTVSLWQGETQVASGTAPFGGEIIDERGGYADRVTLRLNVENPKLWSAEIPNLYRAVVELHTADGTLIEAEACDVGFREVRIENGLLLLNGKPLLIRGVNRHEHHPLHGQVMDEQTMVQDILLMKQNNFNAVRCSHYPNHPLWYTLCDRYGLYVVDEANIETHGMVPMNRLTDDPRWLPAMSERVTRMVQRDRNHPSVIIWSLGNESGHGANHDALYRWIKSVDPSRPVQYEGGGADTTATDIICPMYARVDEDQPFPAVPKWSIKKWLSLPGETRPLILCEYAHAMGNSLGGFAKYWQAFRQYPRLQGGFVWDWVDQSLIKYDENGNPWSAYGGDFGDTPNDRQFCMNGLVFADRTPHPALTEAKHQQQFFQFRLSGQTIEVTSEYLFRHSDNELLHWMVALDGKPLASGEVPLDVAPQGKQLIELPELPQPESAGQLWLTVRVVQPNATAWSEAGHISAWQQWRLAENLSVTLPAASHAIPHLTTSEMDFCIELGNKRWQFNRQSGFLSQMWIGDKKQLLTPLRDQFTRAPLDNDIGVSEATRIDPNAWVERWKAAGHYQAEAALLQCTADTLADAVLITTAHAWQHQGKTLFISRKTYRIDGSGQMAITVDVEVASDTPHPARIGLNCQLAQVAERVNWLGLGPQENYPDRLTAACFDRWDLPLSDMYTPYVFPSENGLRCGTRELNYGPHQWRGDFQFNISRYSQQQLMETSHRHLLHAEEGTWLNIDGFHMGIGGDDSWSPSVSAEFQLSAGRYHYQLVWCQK

In the case of `O=[N+]([O-])c1ccccc1O[C@@H]1O[C@H](COP(=O)(O)O)[C@H](O)[C@H](O)[C@H]1O` [ONPG, o-nitrophenyl β-D-galactopyranoside 6-phosphate], the Km [1] is reported as 400 µM and the Km [2] is reported as 400 µM.
